# How the values were obtained:
# [1] = system: CHO M1-WT3 cells; assay: Cytosolic calcium overload assay, carbachol stimulated; assay type: cell-based, Chinese hamster; conditions: 200 nM carbachol, variant concentrations
# Description: Cytosolic calcium increases in the CHO M1-WT3 cells when stimulated with carbachol ([Molecular Devices, FlexStation Application Note 2, Comparison of FLIPR® and FLEXstation™ for Calcium Mobilization Assays]) and may be detected with a fluorescent dye that binds calcium. An increase in fluorescence following carbachol stimulation is interpreted as an increase in cytosolic calcium. Chinese hamster ovary (CHO) cells were allowed to adhere to the bottom of a 96-well culture plate. The fluorescent dye and a test sample were placed on the plate and allowed to be taken up by the cells. The fluorescence level was measured every two seconds using a plate reader (Flexstation II, Molecular Devices, Sunnyvale Calif.). The cells were stimulated with carbachol and fluorescent data reported as the peak increase in fluorescence above baseline following carbachol stimulation. Data were normalized to the peak carbachol response in the control sample.
# CHO cells from the cell line CHO-M1-WT3 were grown in Hams F12 medium supplemented with 10% FBS and 5 μg/mL G418 to maintain expression of the M1 muscarinic receptor. Cells were seeded the night before the experiment at a concentration of 30,000 cells/well in a volume of 100 μL per well of black walled, clear bottomed, 96-well microplates (“assay plates”). Cells were incubated at 37° C. and 5% CO2 overnight. […] The cells were placed into the FlexStation system to monitor fluorescence before and after the addition of 50 μL of 1 μM carbachol for a final concentration of 200 nM. Fluorescence was measured for 17 seconds prior to carbachol addition and 43 seconds following carbachol addition. The Fluo-4 dye was excited at a wavelength of 485 nm and emission measured at 525 nm. The Calcium-3 dye was excited at a wavelength of 494 nm and emission measured at 525 nm. The calcium response was reported as the peak fluorescence minus the baseline fluorescence calculated as the average of the fluorescence prior to carbachol addition.
# [2] = system: Akt; assay: Cytoblot assay for Akt activation in A549 cells; assay type: cell-based, human
# Experimental: The ability of RLip-EA-OH to increase phosphorylated Akt was assayed using an in-cell western blot, or cytoblot. A549 cells (human non-small cell lung cancer cell line) were selected because these cells can be manipulated to increase or decrease the level of phosphoryated Akt. The cells were inoculated onto culture plates and allowed to adhere to the bottom, then treated, fixed, and permeabilized. Following permeabilization, the cells were treated with antibodies specific for either phospho-Akt or total Akt. The cells were then treated with fluorescent secondary antibodies to quantify the amount of bound primary antibody. Total Akt and phospho-Akt were simultaneously detected.
# A549 cells were plated in 384 well black-wall, clear-bottom, cell culture-treated microtiter plates at 70% confluence. Cells were incubated overnight to allow cell attachment. The media was changed to low serum (0.1%, fetal bovine serum [FBS]) and the cells were incubated for another 24 hours. Cells were treated with test compounds, fixed and permeabilized for the Akt assay. The fixative was 3.7% formaldehyde in phosphate buffered saline. The permeabilization buffer was 0.5% Triton X-100 in phosphate buffered saline. After permeabilization of cells, the amounts of total Akt and phosphorylated Akt at either of the two phosphorylation sites (threonine-308 and serine-473) were determined at 7 test concentrations, each performed in quadruplicate. The phospho-Akt data were normalized to total Akt and background subtracted for analysis.
# Following overnight serum starvation to reduce basal Akt phosphorylation, cells were stimulated with vehicle, RLip-EA-OH, or RLip-OH. Cells were treated for 45 minutes or 3 hours and studied for phosphorylation at serine-473 or threonine 308, respectively.
# [3] = Oxygen Radical Absorbance Capacity (ORAC) assay; conditions: mean of 3-4 experiments
# Description: Peroxyl radicals are one species of reactive oxygen produced by cells during reperfusion. The presence of peroxyl radicals can be detected by fluorescein oxidation. In the presence of peroxyl radicals, fluorescein fluorescence will decay over time. In the presence of an oxygen radical scavenger, the rate of decay is diminished. The change in the rate of decay between control and in the presence of scavengers is used to measure the peroxyl radical scavenging ability of a test compound.
# Each compound tested was diluted to a concentration ranging from 25 μM to 250 μM in 10 mM phosphate buffer (pH=7.4) containing 10 nM fluorescein. The buffer and compound were incubated at 37° C. for 10 minutes. After the incubation, flourescein fluorescence was measured using a plate reader (Molecular Devices Flexstation II, Ex=485, Em=520). Baseline fluorescence measurements were recorded for 15 minutes before 2,2′-azobis(2-methylpropionamidine) dihydrochloride (AAPH) was added. The fluorescence decay was recorded for 90 minutes. The fluorescence decay without compound was subtracted from the fluorescence decay with compound. The slope of the decay vs. concentration is reported as the absorbance capacity.
structure (smiles),measurement,setting,value
"C[C@H](NC(=O)[C@H](CCC(=O)O)NC(=O)CCCC[C@@H]1CCSS1)C(=O)O [RLip-EA-OH, N-(R)-lipoyl-L-glutamyl-L- alanine]",effect on carbachol stimulated flux in cytosolic calcium,[1],diminished the flux in cytosolic calcium in a dose dependent manner
same,increase in phosphorylated Akt at serine 473,[2]; 45 minutes of treatment,3 fold
same,Akt phosphorylation at threonine-308,"[2]; 3 hours of treatment, compound alone",Increased Akt phosphorylation
same,amount of phosphorylated Akt relative to total Akt,[2]; variant concentrations,increased the amount of phosphorylated Akt relative to total Akt in a dose dependent manner
same,ORAC Value relative to RLip-EA-OH,[3],100 ± 11
same,ORAC Value relative to RLip-OH,[3],131 ± 6^

# Source: patent US8772250B2, “Compositions and methods for treating ischemia and ischemia-reperfusion injury” (Ischemix, LLC, priority 2010, dated 2014)
